Experimental data published in US20110144125A1, “Anti-Arrhythmia Agents, Methods of Their Use, Methods of Their Identification and Kits Therefore” (THE UAB RESEARCH FOUNDATION, priority 2008, published 2011).
Structures can show the parent of a compound that is named as a salt.

Assays:
[1] = tested on: rat left atrial appendage; assay: 2-APB-induced spontaneous mechanical activity (SMA/SMEs) in isolated superfused rat left atria / left atrial appendage; settings: 0.1 Hz paced, 15 μM 2-APB, titration after appearance of SMA
Procedure: (§1) Left atria were isolated from male Sprague-Dawley rats (325 to 400 g) under IP pentobarbital anesthesia (0.1 g/kg). Isolated left atria were superfused at 30° C. in Krebs-Henseleit (KH) buffer of the following mM composition: NaCl, 118; NaHCO3, 27; KCl, 4.8; MgSO4, 1.2; KH2PO4, 1.0; CaCl2, 1.8; and glucose, 11.1. Nearly isometric left atrial forces of contraction were measured as described.
Isolated superfused left atria were paced at 3 Hz. 2-APB was added to atrial superfusates from 0.015 or 0.15M DMSO stock solutions to achieve concentrations of 0, 2, 7.5, 15, or 22 μM (n=5 to 10 atria per concentration). Changes in atrial mechanical force were recorded during a subsequent 15 min superfusion.
Two groups of 5 to 6, 3 Hz paced atria were superfused in KH and exposed to 0 or 15 μM 2-APB for 10 min. The pacing stimulus was interrupted for 5 min and the number of spontaneous mechanical events (SMEs), defined as increases in mechanical force occurring in the absence of pacing, were measured as was the postrest potentiation response (PRP).
To determine whether diastolic interval affected the interaction between 2-APB and left atria, atrial pacing was decreased to 0.1 Hz, and 0, 7.5, or 22 μM 2-APB was added to the superfusate (n=6-8 per group). Superfusions continued for 15 min, and changes in atrial mechanical function were observed.
To establish whether SMA was reversible, atria (n=7) were paced at 0.1 Hz, exposed to 15 μM 2-APB for 10 min, and washed with KH. The effect of removing 2-APB on atrial mechanical function was recorded.
To test whether an anion transport inhibitor affected SMA, atria (n=7) were paced at 0.1 Hz in KH and exposed to 15 μM 2-APB. Following the appearance of SMA, they were titrated with 100 to 400 μM DIDS for 3 to 5 min at each concentration. Whether SMA occurred at the end of each titration period was recorded.
(§2) Left atria (n=10 per group) were paced at 0.1 Hz and treated with (i) 20 μM 2-APB for 10 min, (ii) with 30 nM isoproterenol for 5 min followed by 20 μM 2-APB for 10 min, and (iii) with 3 μM forskolin for 5 min followed by 20 μM 2-APB for 10 min.
The appendages then were titrated with increasing concentrations of 2-APB, and SMA was measured and recorded.
(§3) To determine the anti-arrhythmic activity of gossypol, isolated rat left atrial appendage and right ventricular muscle strips were used as model systems, as described above. Heart muscle was exposed to 20 μM 2-APB for 10 min to induce SMA, and rates of SMA were recorded as a percentage of initial SMA. The muscles then were titrated with up to 5 increasing concentrations of gossypol. Rates of SMA were recorded ˜10 min after the addition of concentration of the polyphenol.
To determine whether EGCG can prevent arrhythmia, rat left atrial appendages (n=9) were exposed to 20 μM 2-APB and rates of SMA were recorded. Groups of muscles (n=6 per) were pre-treated with 30 μM EGCG for 10 min following which they were exposed to 2-APB. Rates of SMA were recorded 10 min later.
as §3, with “whether EGCG is effective to reverse arrhythmia,” for “the anti-arrhythmic activity of gossypol,”, “Rat left atrial appendages were” for “Heart muscle was”, “left atrial appendages” for “muscles”, “the following polyphenols: EGCG, gossypol, resveratrol, and quercetin.” for “gossypol.”
To determine whether EGC can prevent arrhythmia, left atrial appendages (n=9) were exposed to 20 μM 2-APB and rates of SMA were recorded. Groups of appendages (n=6 per) were pre-treated with 30 μM EGC for 10 min following which they were exposed to 2-APB.

rat left atria [2] = assay: Left atrial force of contraction / post-rest potentiation maximum force
Procedure: as §1
The initial potentiated beat following prolonged rest (i.e., the PRP maximum force of contraction) reflects activator calcium available for SR release. The PRP response was used to obtain an indirect measure of left atrial SR calcium under our conditions.
Left atria (n=6) were superfused in KH, paced at 0.1 Hz, and subjected to PRP. Superfusion proceeded for another 35 min, and a second PRP was performed. These 2 forces were compared to assure the mechanical stability of our preparations.
One group (n=8) was superfused in KH, paced at 0.1 Hz, and their maximum force of contraction was measured. These atria were washed with KH containing 82 mM sodium, and a second PRP was performed 23 min later.
A second group (n=8) was paced at 0.1 Hz in KH and subjected to PRP. They were exposed to 22 μM 2-APB and, after the appearance of SMA, were washed with KH containing 22 μM 2-APB and 82 mM sodium. Superfusion continued for 23 min and a second PRP was performed.
Control 0.1 Hz paced atria (n=8) were subjected to PRP and exposed to 400 μM DIDS, and a second PRP was performed 23 min later.
A group of atria (n=8) were paced at 0.1 Hz in KH and subjected to PRP. They were exposed to 22 μM 2-APB, 400 μM DIDS was added to the superfusate after the appearance of SMA, and a second PRP was performed 23 min later.
(§4) Left atria (n=8 per group) were paced at 3 Hz and (i) titrated with 0 to 30 nM isoproterenol (Ahlquist, 1970) or (ii) exposed to 3 μM forskolin (Laurenza et al., 1980). Left atrial force and frequency of contraction, the time to peak tension and relaxation times were recorded after a 3-5 min exposure to forskolin or to any concentration of isoproterenol. The 3 Hz pacing stimulus was interrupted at the end of these protocols to measure SMEs.
(§5) Left atria (n=6 per group) were paced at 3 Hz, titrated with 0 to 300 nM (−)BayK 8644 ([…]-1,4-Dihydro-2,6-dimethyl-5-nitro-4-[2-(trifluormethyl)phenyl]-3-pyridinecarboxylic acid methyl ester; Franckowiak et al. 1985) or FPL-64176 ((2,5-Dimethyl-4-[2-(phenylmethyl)benzoyl]-111-pyrrole-3-carboxylic acid methyl ester; Zheng et al., 1991) and their mechanical function and rates of SMA were recorded after a 5 min exposure to any concentration of slow calcium channel activator.
(§6) To test whether ryanodine receptor calcium leak produces SMA, left atria (n=6 per group) were paced at 0.1 Hz, treated with 0 or 300 nM BayK 8644 for 5 min, and then exposed to 600 nM ryanodine (Sutko et al., 1997). Atrial mechanical function and rates of SMA were recorded 20 min after exposure to ryanodine.
(§7) Left atria (n=7) were paced at 3 Hz, treated with 120 μM ouabain (Illanes and Marshall, 1964), and any change in mechanical function was recorded at a new steady state, ˜10 min later. These atria were exposed to 20 μM 2-APB and their mechanical function and rates of SMA were recorded 10 min later.
To test whether zatebradine affects left atrial force of contraction, two groups of left atria (n=9 per group) were paced at 3 Hz and treated with 300 nM BayK 8644. Five minutes later one group was incubated with six increasing concentrations of zatebradine (10-100 μM) for 3-5 min at each concentration, and forces of contraction were recorded. A second group was treated with BayK 8644 but not zatebradine, and forces of contraction were recorded at corresponding times.

rat right atria = assay: Right atrial spontaneous (pacemaker-driven) contraction frequency
Procedure: (§8) Male Sprague-Dawley rats (325-400 g) were anesthetized with intra-peritoneal pentobarbital (0.1 g/kg). Their right and left atria were isolated, superfused at 30° C. in Krebs-Henseleit buffer, and nearly isometric forces of contraction were measured from these muscles (Wolkowicz et al., 2002). 2-APB was prepared as a 150 mM dimethyl sulfoxide stock.
Left atria (n=9) were paced at 0.1 Hz, treated with 300 nM BayK 8644 for 5 min, then with 20 μM 2-APB for 10 min, and the pacing stimulus was stopped. These preparations then were incubated with six increasing concentrations of zatebradine (10-100 μM) for 3-5 min at each concentration, and rates of SMA were recorded. Untreated right atria (n=9) also were titrated with zatebradine and its effect on contraction frequency was recorded.
To test whether zatebradine affects the SMA occurring in the presence of 2-APB and isoproterenol, left atria (n=7) were paced at 0.1 Hz, treated with 30 nM isoproterenol for 5 min, then with 20 μM 2-APB for 10 min, and the pacing stimulus was stopped. Rates of SMA were recorded, these left atria were exposed to 70 μM zatebradine for 10 min, and rates of SMA were recorded again. A group of right atria (n=7) also were exposed to 30 nM isoproterenol for 5 min and then to 70 μM zatebradine for 10 min. Right atrial contraction frequency was recorded at these two times.
To test whether ZD-7288 (4-Ethylphenyl amino-1,2-dimethyl-6-methylaminopyridinium chloride), an If inhibitor structurally unrelated to zatebradine (Baruscotti et al., 2005; Sanders et al., 2006) affects the SMA occurring in the presence of 2-APB and BayK 8644, rat left atria (n=7) were treated with 300 nM BayK 8644 for 5 min, then with 20 μM 2-APB for 10 min, and the rates of SMA were recorded. These atria then were incubated with six increasing concentrations of ZD-7288 (10-100 μM) for 3-5 min at each concentration, and the rates of SMA were recorded. Right atria (n=7) were titrated similarly with ZD-7288 (0-100 μM) and the change in their contraction frequency was recorded.

rat left atria [3] = assay: Spontaneous tachycardic activity (STA) in isolated rat left atria exposed to 2-APB under increased calcium load; settings: for effect of If inhibitor on left atrial STA: BayK 8644 and 2-APB, zatebradine 70 μM, ZD-7288 titration to 100 μM
Procedure: as §8, §4, §2
Left atrial contraction and relaxation times were recorded at these five times, the pacing stimulus was stopped and rates of SMA were recorded. To determine whether initial pacing rate affects left atrial response to 2-APB and isoproterenol, left atria (n=5-7 per group) were paced at 3 Hz and (i) remained untreated for 15 min, (ii) were treated with 20 μM 2-APB alone for 10 min, or (ii) were treated with 30 nM isoproterenol for 5 min followed by 20 μM 2-APB for 10 min. Atrial mechanical function was measured at these four times; the pacing stimulus then was stopped and rates of SMA were recorded.
as §5
Left atria (n=8 per group) were paced at 0.1 Hz, exposed to 300 nM BayK 8644 or FPL-64176 for 5 min followed by 20 μM 2-APB for 10 min. Atrial mechanical function was recorded at this time; the pacing stimulus then was stopped and rates of SMA were recorded.
as §6
Rates of SMA were measured 5 min later.
as §7
3 Hz-paced left atria (n=9 per group) were superfused (i) in Krebs-Henseleit alone or (ii) they were treated with 20 μM 2-APB for 10 min, (iii) with 300 nM BayK 8644 for 10 min and with 20 μM 2-APB for 10 min, or (iv) they were treated with 300 nM BayK 8644 and 20 μM 2-APB for 10 min, then with 70 μM zatebradine (3-[3-[[2-(3,4-Dimethoxyphenyl)ethyl]methylamino] propyl]-1,3,4,5-tetrahydro-7,8,-dimethoxy-2H-3-benzazepin-2-one hydrochloride) for 10 min (Baruscotti et al., 2005). Pacing was interrupted at these times and rates of SMA were recorded.

SMILES	DIDS concentration that reversed SMA completely [1] [µM]	maximum forces of left atrial contraction, beginning vs end of 35-min superfusion (rat left atria [2]; 400 μM DIDS alone, no 2-APB)	effect on right atrial contraction frequency (rat right atria; ZD-7288 titration 0-100 μM)	effect of If inhibitor on left atrial STA (rat left atria [3])	IC50 (rat right atria; Rattus norvegicus, untreated right atria titrated with zatebradine, read-out: IC50 for decrease of right atrial contraction frequency) [µM]	right atrial contraction frequency (rat right atria; isoproterenol+70 μM zatebradine) [contractions/min]	maximum decrease of right atrial contraction frequency (rat right atria; zatebradine titration) [%]	left atrial force of contraction (rat left atria [2]; 3 Hz paced, 300 nM BayK 8644, titrated with 10-100 μM zatebradine)	IC50 (rat left atria [3]; Rattus norvegicus, intact left atria exposed to BayK 8644 and 2-APB, read-out: IC50 for decrease of STA) [µM]	rate of appendage STA (rat left atria [3]; isoproterenol+2-APB+70 μM zatebradine) [contractions/min]
O=S(=O)(O)c1cc(N=C=S)ccc1C=Cc1ccc(N=C=S)cc1S(=O)(=O)O [DIDS, 4,4′-diisothiocyanatostilbene-2,2′-disulfonic acid]	> 300	not different								
CCN(c1ccccc1)c1cc(NC)[n+](C)c(C)n1.[Cl-] [ZD-7288]			decreases right atrial contraction frequency less robustly than zatebradine	decreases left atrial STA						
COc1ccc(CCN(C)CCCN2CCc3cc(OC)c(OC)cc3CC2=O)cc1OC [zatebradine, 3-[3-[[2-(3,4-Dimethoxyphenyl)ethyl]methylamino]propyl]-1,3,4,5-tetrahydro-7,8,-dimethoxy-2H-3-benzazepin-2-one hydrochloride]				significantly decreases	12 ± 1.1	212±9.7	~50	95±3.8 % of initial force	58 ± 5	110±24.5
